One series has as its system influenza virus. It is filed as cell-based. As to conditions: 1.23 mg/ml.

Read-outs that look alike come from different tables or passages of the source.

Consider `CCOC(=O)C1=C[C@@H](OC(CC)CC)[C@H](NC(C)=O)[C@@H](N)C1` [Tamiflu, oseltamivir], for which the results for the cytotoxicity result in the series on MDCK cells and in the series on MDCK cells (1.23 mg/ml) were “comparatively high cytotoxicity” and “showed high cytotoxicity”, respectively. Further, the “Cell viability (%)” value in the series on MDCK cells (0.14 mg/ml) amounted to 64.02%; with MDCK cells (0.41 mg/ml) it was 54.94%; in the series on MDCK cells (1.23 mg/ml) it was 20.83%. In addition, the antiviral activity entry in the series with influenza virus is “no antiviral activity”.

The record behind these values is patent US8623426B2, “Composition for preventing or treating diseases caused by influenza viruses” (Korea Institute of Oriental Medicine, priority 2009, dated 2014).
